≈ marks a conversion by molar mass, not a printed value. Read-outs that look alike come from different tables or passages of the source.
Columns and labels:
Alternaria solani = experiment: PDA plate mycelial radial growth inhibition (paint film mildew fungi), Table 1; format: cell-based; conditions: PDA plates, read-out: EC75 (concentration giving 75% control of hyphal growth)
Description: (§1) The test was run as follows. Potato dextrose agar (PDA) was dissolved in water (30 g PDA/1) and autoclaved at 15 psi for 15 minutes. PDA was purchased from Difco. Triazoles were dissolved in a small quantity of methanol and added to autoclaved, molten potato dextrose agar in a dilution series to give 0.01, 0.1, 1, 10 and 100 ug ml^-1. Final methanol content of the highest dose was included. The molten agar was pipetted into Petri plates (15 ml per plate) and allowed to set. Two 5 mm mycelial plugs were removed from mother cultures of each of the fungal species tested, and were placed near the edge of the test plates. When colonies were 10-40 mm in diameter, the radial mycelial growth was measured and EC75 values were determined on log-probit paper.
EC75 values (concentration giving 75% control of hyphal growth) are reported.

Piricularia oryzae = experiment: microbe, parasite or virus in culture; format: cell-based; conditions: 72 h
Aspergillus niger = experiment: Paint film mildewcide popsickle stick test, Table 6; conditions: A. niger, 10 days, 30° C., 95% RH
Description: (§2) Testing is described below.
(§3) Testing was done in a commercial acrylic-based latex paint with conventional pigments, dispersants, and the like. Texanol (R) is trimethyl-1,3-pentanediol monisobutyrate supplied by Eastman Chemical. "Latex" is a latex of a copolymer of butyl acrylate and methyl methacrylate.
(§4) To a sealable container was charged 100 parts of the paint formulation and the desired triazole concentration. The sample was homogenized for 15 minutes each, then blended and remixed.
(§5) Three triazoles were evaluated for their effectiveness as paint film mildewcides at […] and 10 lbs/100 gallons in a laboratory popsickle stick test. Untreated controls were included in the test.
(§6) Duplicate popsickle sticks painted with the treated and untreated paint sample were inoculated with Aureobasidium pullulans and Aspergillus niger. The sticks were inoculated for 10 days at 30° C. and 95% RH and samples were rated for fungal growth.

Aureobasidium pullulans = experiment: as above; conditions: A. pullulans, 10 days, 30° C., 95% RH
Description: as §2, §3, §4, §5, §6

Aspergillus flavus = experiment: PDA plate mycelial radial growth inhibition (paint film mildew fungi), Table 2; format: cell-based; conditions: read-out: EC50 (concentration giving 50% control of hyphal growth)
Description: as §1
(§7) EC50 values (concentration giving 50% control of hyphal growth) are reported.

Aureobasidum pullulans = experiment: as above; format: cell-based; conditions: read-out: EC50 (concentration giving 50% control of hyphal growth)
Description: as §1, §7

Cladisporium resinae = experiment: as above; format: cell-based; conditions: read-out: EC50 (concentration giving 50% control of hyphal growth)
Description: as §1, §7

Gloeophyllum tradeum = experiment: Wood decay fungi radial growth inhibition on PDA, Table 7; format: cell-based; conditions: read-out: EC50 (concentration giving 50% control of hyphal growth)
Description: (§8) The test was run as follows. Potato dextrose agar (PDA) was dissolved in water (39 g/l) and autoclaved at 15 psi for 15 min. PDA was purchased from Difco. The triazole was dissolved in a small quantity of dimethylsulfoxide (DMSO) and diluted to appropriate concentrations with the same solvent. Ten microliters of the appropriate solution was added to each of five wells of a Falcon 6 well tissue culture dish. To the sixth well was added ten microliters of DMSO as a control. Five ml of molten PDA was then added to each of the wells to give […] μg ml-1 of triazole. The plate was gently agitated to afford a uniform mixture. Upon cooling, the dishes were inoculated with a six mm agar plug from a freshly grown culture of the test organism. The assay plates were then incubated at room temperature and evaluated when the radial growth in the control well had reached approximately 30 mm. The radial growth for the treated wells was measured and the growth inhibition and EC50 values were calculated using non-linear regression analysis. Data are shown in Table 7 for triazoles VIII and IX (Table). EC50 values (concentration giving 50% control of hyphal growth) are reported.

Phialophora mutabilis = experiment: as above; format: cell-based; conditions: Coniochaeta mutabilis, room temperature, read-out: EC50 (concentration giving 50% control of hyphal growth)
Description: as §8

Poria placenta = experiment: as above; format: cell-based; conditions: room temperature, read-out: EC50 (concentration giving 50% control of hyphal growth)
Description: as §8

Trametes Versicolor = experiment: as above; format: cell-based; conditions: room temperature, read-out: EC50 (concentration giving 50% control of hyphal growth)
Description: as §8

[1] = pH 3.5, read-out: EC90 for mycelial growth
[2] = pH 4.8, read-out: EC90 for mycelial growth
[3] = pH 5.4, read-out: EC90 for mycelial growth
[4] = pH 6.3, read-out: EC90 for mycelial growth
[5] = pH 7.2, read-out: EC90 for mycelial growth
[6] = pH 7.7, read-out: EC90 for mycelial growth
[7] = pH 8.7, read-out: EC90 for mycelial growth
[8] = pH 9.8, read-out: EC90 for mycelial growth
[9] = pH 11.2, read-out: EC90 for mycelial growth

Row | SMILES | EC90 (Piricularia oryzae; [1]) [µg/mL] | EC90 (Piricularia oryzae; [2]) [µg/mL] | EC90 (Piricularia oryzae; [3]) [µg/mL] | EC90 (Piricularia oryzae; [4]) [µg/mL] | EC90 (Piricularia oryzae; [5]) [µg/mL] | EC90 (Piricularia oryzae; [6]) [µg/mL] | EC90 (Piricularia oryzae; [7]) [µg/mL] | EC90 (Piricularia oryzae; [8]) [µg/mL] | EC90 (Piricularia oryzae; [9]) [µg/mL] | Fungal growth rating (Aspergillus niger; replicate 1, 1 lbs/100 gal) | Fungal growth rating (Aspergillus niger; replicate 1, 5 lbs/100 gal) | Fungal growth rating (Aspergillus niger; replicate 1, 10 lbs/100 gal) | Fungal growth rating (Aspergillus niger; replicate 2, 1 lbs/100 gal) | Fungal growth rating (Aureobasidium pullulans; replicate 1, 1 lbs/100 gal) | Fungal growth rating (Aureobasidium pullulans; replicate 2, 1 lbs/100 gal) | EC50 (Aspergillus flavus) [µg/mL] | EC50 (Cladisporium resinae) [µg/mL] | EC50 (Gloeophyllum tradeum) [µg/mL] | EC50 (Phialophora mutabilis) [µg/mL] | EC50 (Poria placenta) [µg/mL] | other results
1 | N#CC(CCc1ccc(Cl)cc1)(Cn1cncn1)c1ccccc1 (stereo not drawn) [I, α-[2-(4-chlorophenyl)ethyl]-α-phenyl-1H-1,2,4-triazole-1-propanenitrile] | 0.5 (≈ 1.48 µM) | 0.1 (≈ 0.297 µM) | 0.1 (≈ 0.297 µM) | 0.1 (≈ 0.297 µM) | 0.1 (≈ 0.297 µM) | 0.1 (≈ 0.297 µM) | 0.1 (≈ 0.297 µM) | 0.1 (≈ 0.297 µM) | 0.1 (≈ 0.297 µM) | 4+ | 4+ | 3+ | 4+ | 2+ | 2+ |  |  |  |  |  | EC75 (Alternaria solani): 5 µg/mL (≈ 14.8 µM); Fungal growth rating (Aspergillus niger; replicate 2, 5 lbs/100 gal): 3+; Fungal growth rating (Aspergillus niger; replicate 2, 10 lbs/100 gal): 3+
2 | CCCCC(C#N)(Cn1cncn1)c1ccc(Cl)cc1 (stereo not drawn) [II, α-n-butyl-α-4-chlorophenyl-1H-1,2,4-triazole-1-propanenitrile] | 5 (≈ 17.3 µM) | 4.5 (≈ 15.6 µM) | 4.5 (≈ 15.6 µM) | 4.5 (≈ 15.6 µM) | 4.5 (≈ 15.6 µM) | 4.5 (≈ 15.6 µM) | 5 (≈ 17.3 µM) | 4.5 (≈ 15.6 µM) | 4.5 (≈ 15.6 µM) | 3+ | 2+ | 1+ | 2+ | 3+ | 4+ |  |  |  |  |  | Fungal growth rating (Aureobasidium pullulans; replicate 1, 5 lbs/100 gal): 2+; Fungal growth rating (Aureobasidium pullulans; replicate 1, 10 lbs/100 gal): 2+; Fungal growth rating (Aureobasidium pullulans; replicate 2, 5 lbs/100 gal): 2+; Fungal growth rating (Aureobasidium pullulans; replicate 2, 10 lbs/100 gal): 1+
3 | CCCCC(C#N)(Cn1cncn1)c1ccc(Cl)cc1 (stereo not drawn) [Structure IX, α-n-butyl-α-4-chlorophenyl-1H-1,2,4-triazole-1-propanenitrile] |  |  |  |  |  |  |  |  |  |  |  |  |  |  |  | 1.2 (≈ 4.16 µM) | 1.7 (≈ 5.89 µM) | 0.313 (≈ 1.08 µM) | 1.45 (≈ 5.01 µM) | 0.228 (≈ 0.79 µM) | EC50 (Aureobasidum pullulans): 0.5 µg/mL (≈ 1.73 µM); EC50 (Trametes Versicolor): 0.118 µg/mL (≈ 0.409 µM)
4 | N#CC(CCc1ccc(Cl)cc1)(Cn1cncn1)c1ccccc1 (stereo not drawn) [Structure VIII, α-[2-(4-chlorophenyl)ethyl]-α-phenyl-1H-1,2,4-triazole-1-propanenitrile] |  |  |  |  |  |  |  |  |  |  |  |  |  |  |  | 3.5 (≈ 10.4 µM) | 0.025 (≈ 0.0742 µM) | 0.158 (≈ 0.469 µM) | 0.612 (≈ 1.82 µM) | 0.175 (≈ 0.52 µM) | EC50 (Trametes Versicolor): 0.061 µg/mL (≈ 0.181 µM)

Reference: US5223178A (priority 1990, dated 1993)
